This is an account of results in publication PMC10253161, “New 5-Hydroxycoumarin-Based Tyrosyl-DNA Phosphodiesterase I Inhibitors Sensitize Tumor Cell Line to Topotecan” (International Journal of Molecular Sciences, 2023).

As usually defined, the CC50 is the concentration at which the toxic effect on the cells reaches its halfway point. In general, IC50 refers to the concentration that gives 50% inhibition.

Series [1] can be described thus: Cytotoxicity of compounds, MTT test, HEK293A. The class given is cell-based. As to conditions: human, HEK293A cells, compound alone, read-out: CC50 HEK 293A. How it is done: (§1) The cytotoxicity of the compounds to HeLa (human cervical cancer) and HEK293A (human embryonic kidney) cell lines was determined using standard colorimetric MTT-test. Cells were seeded in 96-well plates (5000 cells per well) and cultured in DMEM medium (Invitrogen, Carlsbad, CA, USA) supplemented with 10% fetal bovine serum (FBS) (Invitrogen), penicillin (100 units/mL), and streptomycin (100 μg/mL) at 37 °C and 5% CO2 in a humid atmosphere. Control wells contained 1% DMSO. At 30–50% confluence, the tested compounds were added to the medium. To determine the cytotoxicity of Tdp1 inhibitors, the cells were allowed to attach for 24 h and were treated with compounds with concentrations ranging from 1 to 100 μM for 72 h at 37 °C. All measurements were repeated three times.

A short description of series [2]: Cytotoxicity of compounds, MTT test, HeLa. The class given is cell-based. As to conditions: human, HeLa cells, compound alone. As to the method: as §1
Series [3] relates to HeLa cells. The series is described as follows: Effect of compounds on topotecan cytotoxicity, MTT test, HeLa. The series is classed as cell-based, human. As to the method:
as §1
(§2) To study the effect of the compounds on the cytotoxicity of topotecan, an aqueous solution of topotecan was used at concentrations from 0.2 to 2 μM for HeLa cells and from 0.05 to 0.5 μM for HEK293A cells against the background of 10 μM of the compounds. Cells treated with compounds alone without topotecan were used as controls.
On the technique in general: Tetrazolium dyes change colour on reduction, which living cells bring about.

The target in series [4] is T1, TDP1 (Homo sapiens, UniProt Q9NUW8).
T1 construct: made in house
T1 sequence (Q9NUW8 whole entry): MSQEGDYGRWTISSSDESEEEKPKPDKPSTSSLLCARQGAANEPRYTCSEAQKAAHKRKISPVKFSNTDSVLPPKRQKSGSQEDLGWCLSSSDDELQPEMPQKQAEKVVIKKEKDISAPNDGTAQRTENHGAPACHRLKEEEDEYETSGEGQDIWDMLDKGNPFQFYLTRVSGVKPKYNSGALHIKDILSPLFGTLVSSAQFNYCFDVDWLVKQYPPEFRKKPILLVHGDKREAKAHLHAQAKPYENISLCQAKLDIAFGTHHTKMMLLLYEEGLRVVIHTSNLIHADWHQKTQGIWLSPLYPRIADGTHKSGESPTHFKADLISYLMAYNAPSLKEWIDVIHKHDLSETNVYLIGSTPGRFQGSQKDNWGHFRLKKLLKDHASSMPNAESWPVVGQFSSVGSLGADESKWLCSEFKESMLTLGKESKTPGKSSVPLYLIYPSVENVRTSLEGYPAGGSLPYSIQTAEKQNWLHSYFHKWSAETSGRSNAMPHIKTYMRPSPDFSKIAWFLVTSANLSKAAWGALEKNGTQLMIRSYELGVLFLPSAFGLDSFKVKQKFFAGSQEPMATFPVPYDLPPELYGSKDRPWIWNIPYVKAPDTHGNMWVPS
Kind of series: Real-time fluorescence detection of TDP1 activity (FAM/BHQ1 oligonucleotide biosensor). The class given is biochemical. An excerpt:
To determine the inhibitory properties of the new compounds against TDP1 we used a previously designed real-time oligonucleotide biosensor with 5(6)-carboxyfluorescein (FAM) at the 5′ end and fluorophore quencher BHQ1 (Black Hole Quencher-1) at the 3′-end.
The biosensor, 16-mer DNA oligonucleotide (5′-[FAM] AAC GTC AGGGTC TTC C [BHQ]-3′) was synthesized in the Laboratory of Nucleic Acid Chemistry at the Institute of Chemical Biology and Fundamental Medicine (Novosibirsk, Russia). Real-time fluorescence detection of TDP1 enzyme activity was carried out as described. The recombinant TDP1 was purified as described, using plasmid pET 16B-TDP1, kindly provided by Dr. K.W. Caldecott (University of Sussex, Brighton, UK). To the reaction mixture (200 μL) containing 50 nM oligonucleotide in buffer (50 mM Tris-HCl, pH 8.0, 50 mM NaCl, and 7 mM β-mercaptoethanol), varied concentrations of the tested compounds and purified TDP1 in a final concentration of 1.5 nM were added.
Fluorescence intensity was measured (Ex485/Em520 nm) using POLARstar OPTIMA fluorimeter (BMG LABTECH, GmbH, Ortenberg, Germany) every 1 min for 7 min. The half maximal inhibitory concentrations (IC50) were determined using a six-point concentration response curve and calculated using MARS Data Analysis 2.0 (BMG LABTECH). At least three independent experiments were carried out to obtain the IC50 values.

Series [5] is described as follows: Effect of compounds on topotecan cytotoxicity, MTT test, HEK293A. The series is classed as cell-based, human. As to conditions: human. As to the method:
as §1, §2

Where two headings read alike, the source gives them in different places.

Consider `CC(C)=CCC/C(C)=C/COc1cccc2oc(=O)c(-c3ccc(F)cc3)c(C)c12` [33a, (E)-5-(3,7-Dimethylocta-2,6-dienyloxy)-3-(4-fluorophenyl)-4-methyl-2H-chromen-2-one], for which the 50% cytotoxic concentration (CC50) at 72 h in series [1] and in series [2] was greater than 100000 nM throughout. The “Effect on the cytotoxicity of topotecan, HeLa” value in series [3] (10 µM compound, result in words) was “significantly increased cytotoxicity of topotecan”. Further, the half-inhibitory concentration (IC50) in series [4] (Table 1, recombinant TDP1 1.5 nM, 50 nM oligonucleotide, read-out: TDP1 inhibitory activities (IC50)) stood at 130 ± 30 nM; in series [4] (Table 2, TDP1 IC50, partly rounded, read-out: IC50) it was 130 ± 30 nM.
`CC[C@@]1(O)C(=O)OCc2c1cc1n(c2=O)Cc2cc3c(CN(C)C)c(O)ccc3nc2-1` [Tpc, topotecan]: the half-maximal cytotoxic concentration (CC50) in series [3] (Homo sapiens, HeLa, read-out: Tpc CC50 HeLa) stood at 880 ± 240 nM; in series [5], 40 ± 12 nM.
